SMILES strings stand for the structures.

Sequence of ROMK (Kir1.1) channel (P48048 whole entry): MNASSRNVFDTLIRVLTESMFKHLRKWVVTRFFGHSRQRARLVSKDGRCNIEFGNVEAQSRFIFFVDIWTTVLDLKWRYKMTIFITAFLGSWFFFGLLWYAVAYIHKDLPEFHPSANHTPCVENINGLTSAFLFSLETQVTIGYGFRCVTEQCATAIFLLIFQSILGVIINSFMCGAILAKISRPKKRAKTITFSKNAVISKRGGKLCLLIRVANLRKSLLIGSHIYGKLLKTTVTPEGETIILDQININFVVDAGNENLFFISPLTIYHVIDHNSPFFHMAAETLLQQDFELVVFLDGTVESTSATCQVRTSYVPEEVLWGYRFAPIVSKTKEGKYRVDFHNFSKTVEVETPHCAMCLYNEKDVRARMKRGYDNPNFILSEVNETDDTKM

The target of the assay is ROMK (Kir1.1) channel (Homo sapiens (Human), UniProt P48048). The assay can be described thus: Thallium Flux Assay. In kind it is cell-based. As for the experimental part:
A Thallium Flux Assay was performed on each of the final product compounds of the Examples. This assay has been described previously; see, e.g., PCT Published Application WO 2013/062900.
Broadly, the IC50 is the midpoint of a concentration-inhibition curve. High values mean weaker potency in that assay, low ones greater potency in that assay. On to `CC1=C(N2CC[C@]3(CC[C@H](NCc4ccc(-n5ncnn5)nn4)CC3)C2=O)COC1=O` [Example 74, (5s,8s)-8-(((6-(2H-tetrazol-2-yl)pyridazin-3-yl)methyl)amino)-2-(4-methyl-5-oxo-2,5-dihydrofuran-3-yl)-2-azaspiro[4.5]decan-1-one], for which the IC50 was 210 nM. For `CC1=C(N2CC[C@]3(CC[C@H](N[C@H](CO)c4ccc(-n5cnnn5)nc4)CC3)C2=O)COC1=O` [Example 77], half-maximal inhibition (IC50) was put at 360 nM. Take `CC1=C(N2CC[C@]3(CC[C@H](N(CC(=O)N(C)C)Cc4ccc(-n5cnnn5)nc4)CC3)C2=O)COC1=O` [Example 139]: the IC50 was determined as 120 nM.

With `CCN(Cc1ccc(-n2cnnn2)nc1)[C@H]1CC[C@]2(CCN(C3=C(C)C(=O)OC3)C2=O)CC1` [Example 134], the IC50 stood at 470 nM. For `CC1=C(N2C(=O)[C@]3(CC[C@@H](NCc4ccc5c(c4)Cn4nnnc4-5)CC3)C[C@H]2C)COC1=O` [Example 55, (3R,5s,8S)-8-(((5H-tetrazolo[5,1-a]isoindol-7-yl)methyl)amino)-3-methyl-2-(4-methyl-5-oxo-2,5-dihydrofuran-3-yl)-2-azaspiro[4.5]decan-1-one], the IC50 is 15 nM. This IC50 is about 31-fold lower than that of the compound before. With `CC1=C(N2CC[C@]3(CC[C@@H](N(C)Cc4ccc5c(c4)CCc4nnnn4-5)CC3)C2=O)COC1=O` [Example 112] the figure was 32 nM; with `C[C@H]1C[C@]2(CC[C@@H](NCc3ccc4c(c3)Cn3nnnc3-4)CC2)C(=O)N1C1=CC(=O)OC1` [Example 63, (3S,5r,8S)-8-(((5H-tetrazolo[5,1-a]isoindol-7-yl)methyl)amino)-3-methyl-2-(5-oxo-2,5-dihydrofuran-3-yl)-2-azaspiro[4.5]decan-1-one], 23 nM; with `CC1=C(N2CC[C@]3(CC[C@H](NCc4ccc(-n5cnnn5)nc4)CC3)C2=O)COC1=O` [Example 6, (5s,8s)-2-(4-methyl-5-oxo-2,5-dihydrofuran-3-yl)-8-({[6-(1H-tetrazol-1-yl)pyridin-3-yl]methyl}amino)-2-azaspiro[4.5]decan-1-one], 450 nM. The same measure for `CC1=C(N2CC[C@]3(CC[C@H](N(C)Cc4ccc(-n5ncnn5)cc4)CC3)C2=O)COC1=O` [Example 111]: 300 nM. The same measure for `CC1=C(N2CC[C@]3(CC[C@H](N(CCO)Cc4ccc(-n5cnnn5)cn4)CC3)C2=O)COC1=O` [Example 136]: 160 nM; for `C[C@@H]1C[C@]2(CC[C@H](NCc3ccc(-n4cnnn4)nc3)CC2)C(=O)N1C1=CC(=O)OC1` [Example 27, (3R,5s,8S)-3-methyl-2-(5-oxo-2,5-dihydrofuran-3-yl)-8-({[6-(1H-tetrazol-1-yl)pyridin-3-yl]methyl}amino)-2-azaspiro[4.5]decan-1-one]: 38 nM.

On to `CC1=C(N2CC[C@]3(CC[C@](C)(N(C)Cc4ccc(-n5cnnn5)nn4)CC3)C2=O)COC1=O` [Example 115], for which the IC50 was determined as 15 nM. With `CC1=C(N2CC[C@]3(CC[C@@H](NCc4ccc(-n5cnnn5)nn4)CC3)C2=O)COC1=O` [Example 1, (5r,8r)-2-(4-methyl-5-oxo-2,5-dihydrofuran-3-yl)-8-({[6-(1H-tetrazol-1-yl)pyridazin-3-yl]methyl}amino)-2-azaspiro[4.5]decan-1-one] the figure was 10 nM; with `CC1=C(N2CC[C@]3(CC[C@](C)(NCc4cnc(-n5cnnn5)cn4)CC3)C2=O)COC1=O` [Example 68, (5s,8s)-8-(((5-(1H-tetrazol-1-yl)pyrazin-2-yl)methyl)amino)-8-methyl-2-(4-methyl-5-oxo-2,5-dihydrofuran-3-yl)-2-azaspiro[4.5]decan-1-one], 140 nM; with `CC1=C(N2CC[C@]3(CC[C@H](N(C)CCc4ccc5c(c4)COC5=O)CC3)C2=O)COC1=O` [Example 105], 150 nM. The same measure for `CCN(Cc1ccc2c(c1C)COC2=O)C1CCC2(CC1)CCN(C1=C(C)C(=O)OC1)C2=O` (centres unmarked) [Example 142]: 490 nM.

Regarding `CC1=C(N2CC[C@]3(CC[C@H](NCc4ccc5c(c4C)COC5=O)CC3)C2=O)COC1=O` [Example 4, (5s,8s)-8-(((4-methyl-1-oxo-1,3-dihydroisobenzofuran-5-yl)methyl)amino)-2-(4-methyl-5-oxo-2,5-dihydrofuran-3-yl)-2-azaspiro[4.5]decan-1-one], the half-maximal inhibitory concentration (IC50) is 350 nM.

As to `CC1=C(N2CC[C@]3(CC[C@H](N(C)Cc4cnc(-n5cnnn5)cn4)CC3)C2=O)COC1=O` [Example 91], the IC50 was 690 nM. `C[C@H]1C[C@]2(CC[C@@H](NCc3cnc(-n4cnnn4)cn3)CC2)C(=O)N1C1=CC(=O)OC1` [Example 66, (3S,5r,8S)-8-(((5-(1H-tetrazol-1-yl)pyrazin-2-yl)methyl)amino)-3-methyl-2-(5-oxo-2,5-dihydrofuran-3-yl)-2-azaspiro[4.5]decan-1-one] came in with a half-inhibitory concentration (IC50) of 7 nM. With `CC1=C(N2CC[C@]3(CC[C@@H](N(C)Cc4cc5c(cc4C)-c4nnnn4C5)CC3)C2=O)COC1=O` [Example 122] the figure was 26 nM. The compound `C[C@H]1C[C@]2(CC[C@H](NCc3ccc(-n4cnnn4)nc3)CC2)C(=O)N1C1=CC(=O)OC1` [Example 22, (3S,5s,8R)-3-methyl-2-(5-oxo-2,5-dihydrofuran-3-yl)-8-({[6-(1H-tetrazol-1-yl)pyridin-3-yl]methyl}amino)-2-azaspiro[4.5]decan-1-one] displayed an IC50 of 130 nM. Compared with the last compound, the IC50 is about 5-fold higher.

As to `CC1=C(N2CC[C@]3(CC[C@@H](NCc4ccc(-n5cnnn5)cc4)CC3)C2=O)COC1=O` [Example 44, (5r,8r)-2-(4-methyl-5-oxo-2,5-dihydrofuran-3-yl)-8-{[4-(1H-tetrazol-1-yl)benzyl]amino}-2-azaspiro[4.5]decan-1-one], the midpoint of inhibition, the IC50, lay at 3.1 nM. The same measure for `CC1=C(N2CC[C@]3(CC[C@@H](N(C)[C@H](C)c4ccc(-n5cnnn5)nc4)CC3)C2=O)COC1=O` [Example 94]: 11 nM; for `CC1=C(N2CC[C@]3(CC[C@@H](NC[C@H](O)c4ccc5c(c4C)COC5=O)CC3)C2=O)COC1=O` [Example 78, (5r,8r)-8-(((R)-2-hydroxy-2-(4-methyl-1-oxo-1,3-dihydroisobenzofuran-5-yl)ethyl)amino)-2-(4-methyl-5-oxo-2,5-dihydrofuran-3-yl)-2-azaspiro[4.5]decan-1-one]: 210 nM.

Turning to `CC1=C(N2CC[C@]3(CC[C@H](N(C)Cc4ccc(-n5cnnn5)nc4)CC3)C2=O)COC1=O` [Example 83], the IC50 was determined as 28 nM. With `CC1=C(N2CC[C@]3(CC[C@@H](NCc4ccc5c(c4C)Cn4nnnc4-5)CC3)C2=O)COC1=O` [Example 54, (5r,8r)-2-(4-methyl-5-oxo-2,5-dihydrofuran-3-yl)-8-(((6-methyl-5H-tetrazolo[5,1-a]isoindol-7-yl)methyl)amino)-2-azaspiro[4.5]decan-1-one] the figure was 32 nM. Turning to `CC1=C(N2CC[C@]3(CC[C@@H](N[C@@H](C)c4ccc5c(c4)CCc4nnnn4-5)CC3)C2=O)COC1=O` [Example 21, (5S,8r)-8-{[(1S)-1-(4,5-dihydrotetrazolo[1,5-a]quinolin-7-yl)ethyl]amino}-2-(4-methyl-5-oxo-2,5-dihydrofuran-3-yl)-2-azaspiro[4.5]decan-1-one], the 50% inhibitory concentration (IC50) worked out at 44 nM.

Take `CC1=C(N2CC[C@]3(CC[C@@](C)(NCc4cnc(-n5cnnn5)cn4)CC3)C2=O)COC1=O` [Example 69, (5r,8r)-8-(((5-(1H-tetrazol-1-yl)pyrazin-2-yl)methyl)amino)-8-methyl-2-(4-methyl-5-oxo-2,5-dihydrofuran-3-yl)-2-azaspiro[4.5]decan-1-one]: the midpoint of inhibition, the IC50, lay at 15 nM. With `CN(Cc1cnc(-n2cnnn2)cn1)C1CCC2(CC1)CCN(C1=CC(=O)OC1)C2=O` (centres unmarked) [Example 128] the figure was 93 nM; with `CC1=C(N2CC[C@]3(CC[C@@H](NCc4ccc(-n5ncnn5)cc4)CC3)C2=O)COC1=O` [Example 41, (5r,8r)-2-(4-methyl-5-oxo-2,5-dihydrofuran-3-yl)-8-{[4-(2H-tetrazol-2-yl)benzyl]amino}-2-azaspiro[4.5]decan-1-one], 3.3 nM. The same measure for `O=C1C=C(N2CC[C@]3(CC[C@H](NCc4cnc(-n5cnnn5)cn4)CC3)C2=O)CO1` [Example 73, (5s,8s)-8-(((5-(1H-tetrazol-1-yl)pyrazin-2-yl)methyl)amino)-2-(5-oxo-2,5-dihydrofuran-3-yl)-2-azaspiro[4.5]decan-1-one]: 2000 nM. `CC1=C(N2CCC3(CCC(N(C)C[C@H](O)c4ccc5c(c4C)COC5=O)CC3)C2=O)COC1=O` (some centres unmarked) [Example 124] came in with an IC50 of 64 nM. The compound `CC1=C(N2CC[C@]3(CC[C@@H](N(C)Cc4ccc5c(c4F)Cn4nnnc4-5)CC3)C2=O)COC1=O` [Example 121] had an IC50 of 23 nM. The same measure for `CC1=C(N2CC[C@]3(CC[C@@H](N[C@H](C)c4cnc(-n5cnnn5)cn4)CC3)C2=O)COC1=O` [Example 24, (5R,8r)-2-(4-methyl-5-oxo-2,5-dihydrofuran-3-yl)-8-({(1R)-1-[5-(1H-tetrazol-1-yl)pyrazin-2-yl]ethyl}amino)-2-azaspiro[4.5]decan-1-one]: 120 nM; for `C[C@@H]1C[C@]2(CC[C@@H](NCc3ccc(-n4cnnn4)nc3)CC2)C(=O)N1C1=CC(=O)OC1` [Example 23, (3R,5r,8R)-3-methyl-2-(5-oxo-2,5-dihydrofuran-3-yl)-8-({[6-(1H-tetrazol-1-yl)pyridin-3-yl]methyl}amino)-2-azaspiro[4.5]decan-1-one]: 720 nM; for `CC1=C(N2CC[C@]3(CC[C@@H](N[C@@H](C)c4ccc(-n5cnnn5)nc4)CC3)C2=O)COC1=O` [Example 9, (5S,8r)-2-(4-methyl-5-oxo-2,5-dihydrofuran-3-yl)-8-({(1S)-1-[6-(1H-tetrazol-1-yl)pyridin-3-yl]ethyl}amino)-2-azaspiro[4.5]decan-1-one]: 34 nM. The same measure for `CCN(Cc1ccc(-n2cnnn2)cn1)[C@H]1CC[C@]2(CCN(C3=C(C)C(=O)OC3)C2=O)CC1` [Example 138]: 34 nM.

Take `CC1=C(N2CC[C@]3(CC[C@@H](NCCc4ccc5c(c4)COC5=O)CC3)C2=O)COC1=O` [Example 2, (5r,8r)-2-(4-methyl-5-oxo-2,5-dihydrofuran-3-yl)-8-{[2-(1-oxo-1,3-dihydro-2-benzofuran-5-yl)ethyl]amino}-2-azaspiro[4.5]decan-1-one]: the half-maximal inhibitory concentration (IC50) was 44 nM. This IC50 and that of the compound before are within 1.5-fold of each other.

(Values after patent publication US9718808B2, “Inhibitors of the renal outer medullary potassium channel” (Merck Sharp & Dohme Corp., priority 2014, dated 2017).)
